# Measured values as given in ChEMBL document CHEMBL1153384, “Synthesis, antimalarial activity, and preclinical pharmacology of a novel series of 4'-fluoro and 4'-chloro analogues of amodiaquine. Identification of a suitable "back-up" compound for N-tert-butyl isoquine” (J Med Chem, 2009).
# Experiments:
# Zone of skin = experiment: Biodistribution in cannulated Wistar rat skin assessed as [3H]labeled drug level at 54 umol/kg, iv after 5 hrs; assay type: ADME, organism-based; conditions: in vivo
# [1] = Drug metabolism in cannulated Wistar rat assessed as biliary excretion of [3H]labeled drug level at 54 umol/kg, iv after 5 hrs; assay type: ADME, organism-based, Bile; conditions: in vivo
# Kidney = experiment: Biodistribution in cannulated Wistar rat kidney assessed as [3H]labeled drug level at 54 umol/kg, iv after 5 hrs; assay type: ADME, organism-based; conditions: in vivo
# Liver = experiment: Biodistribution in Wistar rat liver assessed as [3H]labeled drug level at 54 umol/kg, iv after 24 hrs; assay type: ADME, organism-based; conditions: in vivo
# Rattus norvegicus [2] = experiment: Biodistribution in Wistar rat assessed as remaining [3H]labeled drug level at 54 umol/kg, iv after 24 hrs; assay type: ADME, organism-based; conditions: in vivo
# Rattus norvegicus [3] = experiment: Metabolic stability in Wistar rat assessed as [3-(tert-Butylamino-methyl)-4-fluoro-phenyl]-(7-chloro-1-oxy-quinolin-4-yl)-amine level at 54 umol/kg, iv administered as [3H]labeled drug after 5 hrs; assay type: ADME, organism-based; conditions: in vivo
# Rattus norvegicus [4] = experiment: Metabolic stability in Wistar rat assessed as (2S,3S,4S,5R,6S)-6-{2-[5-(7-Chloro-quinolin-4-ylamino)-2-fluoro-benzylamino]-2-methyl-propionyloxy}-3,4,5-trihydroxy-tetrahydro-pyran-2-carboxylic acid level at 54 umol/kg, iv administered as [3H]labeled drug after 5 hrs; assay type: ADME, organism-based; conditions: in vivo
# [5] = Clearance in iv dosed rat; assay type: ADME, organism-based; conditions: in vivo
# Cytochrome P450 2C19 = Cytochrome P450 2C19 (Homo sapiens, UniProt P33261); experiment: Inhibition of human CYP2C19; assay type: ADME
# Mus musculus [6] = experiment: Toxicity in po dosed mouse assessed as maximal nonlethal dose administered as single dose; assay type: organism-based; conditions: in vivo
# Mus musculus [7] = experiment: Toxicity in po dosed mouse assessed as induction of hepatotoxicity at drug dose above no observed adverse effects level; assay type: organism-based; conditions: in vivo
# Mus musculus [8] = experiment: Toxicity in po dosed mouse assessed as induction of hematological toxicity at drug dose above no observed adverse effects level; assay type: organism-based; conditions: in vivo
# Plasmodium falciparum [9] = experiment: Antimalarial activity against chloroquine-resistant Plasmodium falciparum V1/S; assay type: functional, organism-based; conditions: V1S
# Plasmodium berghei = experiment: Antimalarial activity as reduced parasitaemia against Plasmodium berghei ANKA infected CD1 mice (Mus musculus) perorally dosed daily over 4 days; assay type: functional; conditions: po, 96 h
# Plasmodium falciparum [10] = experiment: Antimalarial activity against chloroquine-resistant Plasmodium falciparum K1
# Sequence of Cytochrome P450 2C19 (P33261 whole entry): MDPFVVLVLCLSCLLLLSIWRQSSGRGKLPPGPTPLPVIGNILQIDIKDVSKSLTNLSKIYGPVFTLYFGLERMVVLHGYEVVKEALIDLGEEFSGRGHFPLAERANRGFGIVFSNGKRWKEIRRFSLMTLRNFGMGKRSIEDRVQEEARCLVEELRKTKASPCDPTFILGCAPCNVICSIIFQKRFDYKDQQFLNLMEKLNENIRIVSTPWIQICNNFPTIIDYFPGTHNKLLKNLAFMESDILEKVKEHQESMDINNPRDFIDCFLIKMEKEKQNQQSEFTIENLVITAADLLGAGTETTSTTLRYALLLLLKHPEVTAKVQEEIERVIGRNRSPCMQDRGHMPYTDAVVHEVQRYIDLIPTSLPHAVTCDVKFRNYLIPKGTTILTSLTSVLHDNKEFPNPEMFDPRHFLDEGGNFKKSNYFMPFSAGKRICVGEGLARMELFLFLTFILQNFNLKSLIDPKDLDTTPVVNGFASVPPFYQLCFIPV
smiles,measurement,setting,value
CC(C)(C)NCc1cc(Nc2ccnc3cc(Cl)ccc23)ccc1F,Drug uptake,Zone of skin,12.44 %ID
same,Activity,[1],9.16%
same,Drug uptake,Kidney,3.97 %ID
same,Drug uptake,Liver,6.57 %ID
same,Activity,Rattus norvegicus [2],14.76%
same,Activity,Rattus norvegicus [3],3.55%
same,Activity,Rattus norvegicus [4],9.95%
same,clearance,[5],35 mL/min/kg
same,IC50,Cytochrome P450 2C19,64000 nM
same,Activity,Mus musculus [6],610 mg/kg
same,Activity,Mus musculus [7],Toxic
same,Activity,Mus musculus [8],Toxic
same,IC50,Plasmodium falciparum [9],26.1 nM
same,ED50,Plasmodium berghei,5.3 mg/kg
same,ED90,Plasmodium berghei,12.4 mg/kg
same,IC50,Plasmodium falciparum [10],22 nM
